Experimental data as given in patent publication US7056734B1, “Differentiation of non-insulin producing cells into insulin producing cells by GLP-1 or exendin-4 and uses thereof” (The United States of America as represented by the …, priority 1998, dated 2006).
Where two headings read alike, the source gives them in different places.

How the values were obtained:
AR42J cells [1] = assay: Amylase release from AR42J cells; assay type: cell-based, rat
Procedure: Cell Culture. AR42J cells were maintained in Dulbecco's modified Eagle's medium (Gibco, Grand Island, N.Y.) (DMEM) supplemented with 10% Fetal Calf Serum, 100 IU/ml penicillin, 100 μg/ml streptomycin and 2 mM glutamine. Cells from passage 23–36 were used throughout this study.
Amylase Assay. For amylase secretion, cells were washed free of medium with 2 ml phosphate buffered saline (PBS). Incubation was then carried out in DMEM containing 15 mM HEPES, 0.2% bovine serum albumin (BSA) and 0.01% soybean trypsin inhibitor. The hormones and reagents of interest were added for 50 min at 37° C. The incubation medium was then immediately removed for amylase determination and the cells were again washed in 2 ml ice-cold PBS. […] The released amylase was expressed as the percentage of the total amylase activity of the cells.

AR42J cells [2] = assay: Immunocytochemistry of insulin- and glucagon-positive AR42J cells; assay type: cell-based, rat
Procedure: Cell culture. AR42J cells were maintained in Dulbecco's modified Eagle's medium (DMEM) supplemented with 10% fetal calf serum (FBS), 100 IU/ml penicillin, 100 μg/ml streptomycin and 2 mM glutamine. Cells from passage 23–35 were used throughout this study. Cells were routinely plated at a density of about 10^5 cells/ml in 12-well cluster dishes or on coverslips and incubated in a humidified incubator at 37° C. with 95% air and 5% CO2.
Immunocytochemistry analysis. Cells were cultured on glass coverslips, washed with phosphate buffered saline (PBS) to remove serum, and fixed with 0.5% glutaraldehyde in PBS. Cells were permeabilized with 0.2% Triton X-100 for 5 min and the rest of the procedure was carried out at room temperature in a humidified chamber. Suction was used to remove reagents between each step but drying of specimens was avoided. Sufficient reagent was used to cover each specimen (approximately 1 or 2 drops was usually adequate). The coverslips were incubated in 0.3% H2O2 in PBS for 30 min to quench endogenous peroxidase activity and washed in PBS×3 times, followed by incubation with 2% goat serum in PBS for 30 min to block non-specific binding of IgG. Excess serum was removed by blotting. The specific primary polyclonal antisera (anti-insulin 1:300; anti-glucagon 1:300) were used. Antibody was diluted in PBS containing 1% goat serum. This was applied to the coverslip and incubated at room temperature for 1 h. The coverslips were washed ×3 times in PBS, each time for 5 min, then incubated with biotinylated second antibody for 1 h and washed ×3 times with PBS. Avidin-biotin-peroxidase complex in PBS was applied for 30 min. Immunoperoxidase labeling was performed with a Vectostain ABC kit (Vector Labs, Burlingame, Calif.). After extensive washing in PBS for 4–5 times (each 5 min), the coverslips were incubated in diaminobenzidine tetrahydrochloride (DAB) in PBS, with 0.01% hydrogen peroxide for 3 min. The reaction was stopped by washing the coverslips in PBS and examined under a light microscope. To confirm specific staining, samples incubated with preabsorbed primary antibody were used as negative control, and the insulin producing cell line RIN 1046-38 cells were used as positive control for our experiments. The avidin-biotin-peroxidase (ABC) procedure was performed according to methods known in the art (Hsu et al., 1981).

rat acinar cells = details: Malhotra et al. 1992, cited from earlier work
islets of Langerhans = assay: cAMP determinations in isolated islets; assay type: cell-based, rat
Procedure: cAMP determinations. Islets of Langerhans were harvested from Wistar rats (Perfetti et al., 1995) and batches of 25 islets were then incubated for 1 h at 37° C. in a buffer containing (mM) 140 NaCl, 5 KCl, 1 NaPO4 1 MgSO4, 5 glucose, 2 CaCl2, 20 HEPES, buffer (pH 7.4) and 0.1% bovine serum albumin. Following this, they were incubated in the same buffer for 1 h in the presence of GLP-1 (1 nM) or exendin-4 (1 nM). Some batches of islets were then washed three times with ice-cold phosphate buffer saline (PBS) and lysed with 1 ml ice-cold […] perchloric acid. Other batches were washed three times in the buffer at 37° C. to remove peptide and left another 15 min before being washed three times in ice-cold PBS followed by lysis with the perchloric acid. The lysates (950 μl) were then transferred to microcentrifuge tubes and cAMP measured as previously described (See Example 1) using a cAMP [^3H] assay kit (Amersham).

[3] = 10 nM GLP-1 or 0.1 nM exendin-4, 3 days

Compound	effect on amylase release when given alone (AR42J cells [1])	AR42J cells converted into insulin-positive cells (AR42J cells [2]; [3])	lowest concentration at which some insulin-containing cells were seen (AR42J cells [2]; AR42J cells)	total amylase released (rat acinar cells; CCK alone vs 10^−8 M exendin-4 and CCK together)	concentration at which increased cAMP was seen (rat acinar cells)	cAMP levels 15 min after removal of peptide by three washes (islets of Langerhans)	cAMP levels relative to GLP-1 (islets of Langerhans; 1 nM, 1 h)	effect on amylase release when given alone (AR42J cells [1]; 50 min, glucagon 10 or 100 nM, GLP-1 10 nM, insulin 100 nM, 8-Br-cAMP 100 nM, vanadate 1 mM)	effect on CCK-induced amylase release (AR42J cells [1]; combined with CCK (1 nM), genestein 300 μM, vanadate 1 mM)	basal or CCK (1 nM)-induced amylase release after pre-incubation (AR42J cells [1]; pre-incubation 8, 24, 48 or 72 h with GLP-1 (10 nM) and insulin (100 nM))	AR42J cells converted into insulin-positive cells (AR42J cells [2]; 1 nM GLP-1, 3 days)	treated AR42J cells glucagon positive (AR42J cells [2]; 48 h, GLP-1 (10 nM))	treated AR42J cells insulin-positive (AR42J cells [2]; 48 h, GLP-1 (10 nM))	treated cells containing glucagon (AR42J cells [2]; 72 h, GLP-1 (10 nM))	cells remaining insulin-positive (AR42J cells [2]; for at least 7 days, GLP-1 (10 nM))	concentration of maximum cAMP response (islets of Langerhans)
exendin-4	did not appear to influence amylase release	~25%	10^−11 molar	16%	10^−8 M	returned to baseline	approximately 3 fold	–	–	–	–	–	–	–	–	–
CC[C@H](C)[C@H](NC(=O)[C@H](Cc1ccccc1)NC(=O)[C@H](CCC(=O)O)NC(=O)[C@H](CCCCN)NC(=O)[C@H](C)NC(=O)[C@H](C)NC(=O)[C@H](CCC(N)=O)NC(=O)CNC(=O)[C@H](CCC(=O)O)NC(=O)[C@H](CC(C)C)NC(=O)[C@H](Cc1ccc(O)cc1)NC(=O)[C@H](CO)NC(=O)[C@H](CO)NC(=O)[C@@H](NC(=O)[C@H](CC(=O)O)NC(=O)[C@H](CO)NC(=O)[C@@H](NC(=O)[C@H](Cc1ccccc1)NC(=O)[C@@H](NC(=O)CNC(=O)[C@H](CCC(=O)O)NC(=O)[C@H](C)NC(=O)[C@@H](N)Cc1c[nH]cn1)[C@@H](C)O)[C@@H](C)O)C(C)C)C(=O)N[C@@H](C)C(=O)N[C@@H](Cc1c[nH]c2ccccc12)C(=O)N[C@@H](CC(C)C)C(=O)N[C@H](C(=O)N[C@@H](CCCCN)C(=O)NCC(=O)N[C@@H](CCCNC(=N)N)C(N)=O)C(C)C [GLP-1]	–	~25%	–	–	–	returned to baseline	–	did not influence amylase release	did not influence amylase release	did not increase	~10%	20%	~6%	fully half	~25%	1 nM
